Assays:
ear swelling of mice = test: Croton oil ear swelling of mice; assay type: in vivo, Kunming mice; conditions: 0.025 g/Kg, three days
Description: Preparation of drug: Put 12.5 g of extract of CCP in 100 ml of normal saline, and mix adequately. The drug concentration is […]. Put 25 g of extract of CCP in 100 ml of normal saline, and mix adequately. The drug concentration is 1 g/ml. Put 50 g of extract of CCP in 100 ml of normal saline, and mix adequately. The drug concentration is 2 g/ml. Put 12.5 g of the Bolus of Cinnamomi & Poria in 100 ml of normal saline, and mix adequately. The drug concentration is […]. Put 25 g of extract in 100 ml of normal saline, and mix adequately. The drug concentration is 1 g/ml. Put 50 g of extract in 100 ml of normal saline, and mix adequately. The drug concentration is 2g/ml. Put 0.1 g of Hydrocortisone in 100 ml of normal saline. The drug concentration is 1 mg/ml. Administer all three preparations (a total of seven different solutions) with 10 ml/kg.
Experimental method: According to their weight, randomly divide fifty male mice into eight groups. Administer different doses of the seven solutions mentioned above for three days and for the control group administer the normal saline of the same volume. After three days of administering the drug, besmear […] croton oil on both sides of every mouse's left ear (compare with right ear). […]

[1] = test system: twisting responses of mice induced by acetic acid; test: Acetic acid twisting experiment; assay type: in vivo; conditions: positive control, 0.2 g/kg
Description: Randomly divide the animals into 5 groups. […] After the drug has been administered on the third day, celio-inject 0.5% acetic acid to the mice in groups. Observe and record the times of twisting of mice within 30 minutes. [formula]

[2] = test system: extra-corporeal platelet aggregation of rabbits; test: Extra-corporeal platelet aggregation of rabbit (ADP); assay type: cell-based; conditions: 0.3 Mg/ml
[3] = test system: platelet aggregation of rats; test: Platelet aggregation experiments of rats; assay type: in vivo, Wister rats; conditions: 0.1 g/kg once
Description: The drug concentration is 0.5 mg/ml. […] The drug concentration is 1 g/ml. […] The drug concentration is 1 g/ml. Experimental process: […] Half an hour after administering the drug on the fifth day, use ether to anaesthetize the rats. […] Administer a 0.1 g/kg aspirin once to the positive control group. Prepare platelet plasma according to the method explained previously. Do the aggregation experiments, and record the conditions of every group.

C[C@]12CCC(=O)C=C1CC[C@@H]1[C@@H]2[C@@H](O)C[C@@]2(C)[C@H]1CC[C@]2(O)C(=O)CO [Hydrocortisone]
Average swelling degree (ear swelling of mice): 4.68 ± 3.43

CC(=O)Oc1ccccc1C(=O)O [Aspirin, Acetylsalicylic acid]
controlling rate of twisting times [1]: 61.08%
Aggregation(%) [2]: 32.94 ± 1.68 %
Aggregation ratio [3]: 26.58 ± 10.58

Reference: patent publication US7691387B2, “Cinnamomi and poria composition, method to prepare same and uses thereof” (Jiangsu Kanion Pharmaceutical Co., Ltd, priority 2000, dated 2010)
